Data set [1] in a line: Serum peak concentration of free PB in mice (literature, ref. 83, and scaling). In kind it is in vivo. The settings on record: 4 mg/kg, estimated by scaling from the 3 mg/kg dose. As to the method:
An appropriate starting dose of free PB in mice is estimated by parameter scaling (ref 57; incorporated by reference in its entirety) to attain Cmax exposures that approximate concentrations obtained in human serum. […] Studies are initiated with a PB dose of 4 mg/kg in mice given by tail vein injection every 12 hr. Mice are monitored for 7 days for signs of toxicity (altered respiratory rate, lack of grooming, decreased activity, weight loss). The dose is increased by 1 mg/kg increments until toxicity is observed. Doses that cause more than temporary symptoms are considered the minimal toxic dose, and the next lower dose will be designated the MTD. The MTD of […] is determined in the same manner, starting with the PB molar equivalent MTD of […].

The subject of the next data set is PA. To be noted: free PB for PA; cited from earlier work.
Another data set concerns PA strain PA99. The data set can be described thus: Mouse PA abscess model, treatment injected at the site of infection. The class given is in vivo, Pseudomonas aeruginosa. To be noted: mice, data not shown. As to the method:
FIG. 17. AuNP-PB administration at time of infection with PA prevents abscess formation. Mice were injected subcutaneously (SC) with 2×10^6 CFU of PA strain PA99 in 25 ul of PBS, and were then immediately treated with 50 ul PBS (SC), AuNP-PB (SC, equivalent of 2 ug PB), AuNP (without PB, SC, equivalent amount), or free PB (1 ug IV). SC injections were at the site of the abscess. Abscess areas were measured at 17 hr post-infection. Each symbol represents a distinct mouse. (A) Injections 5 min post-infection; (B) Injections 2 hr post-infection.
Experiments conducted during development of embodiments herein employed a mouse PA abscess model in which the heterogenous AuNP-PB are injected directly into the site of infection. This assay has the advantage of determining whether AuNP-PB kill bacteria in vivo in the absence of PK concerns.

The conditions of data set [2]: rats, PB alone; cited from earlier work.
For data set [3] the following is noted: mice, 3 mg/kg PB dose; cited from earlier work.

The term Cmax denotes the maximum level reached in the sampled fluid or tissue. For orientation: MIC means the smallest concentration in the dilution series that meets the test's criterion for growth inhibition. In the case of polymyxin B [PB], the Cmax in data set [1] is 5300 ng/mL. For the same substance, the MIC with PA was 0.5 to 1.0 µg/mL. Also, the Bacterial loads result in the data set on PA strain PA99 is given as “below the limit of detection”. In data set [2], the Mean half-life is 1.5 h. In data set [3], the “Mean peaks (serum)” value is listed as roughly 4 mg/L.

(Values after patent US10688195B2, “Polymyxin B-coated nanoparticles” (Northwestern University, priority 2016, dated 2020).)
